# What was measured:
# non-constipation IBS = test: Combined first and second studies (TARGET 1 and 2): pooled efficacy, sustained response and recurrence; format: in vivo, human; settings: for No Recurrence, Abdominal Pain & Stool Consistency: number of subjects / No Recurrence, Abdominal Pain: % of subjects / No Recurrence, Abdominal Pain: number of subjects / No Recurrence, Stool Consistency: % of subjects / No Recurrence, Stool Consistency: number of subjects / Recurrence, Abdominal Pain & Stool Consistency: % of subjects / Recurrence, Abdominal Pain & Stool Consistency: number of subjects / Recurrence, Abdominal Pain: % of subjects / Recurrence, Abdominal Pain: number of subjects / Recurrence, Stool Consistency: % of subjects / Recurrence, Stool Consistency: number of subjects / No Recurrence, Abdominal Pain & Stool Consistency: % of subjects: N = 624; for Abdominal Pain or Stool Consistency, No Recurrence / Abdominal Pain or Stool Consistency, Recurrence: Rifaximin (N = 624), n (%)
# Protocol: A measure of efficacy is based on subjects' answers to the Weekly Subject Global Assessment (SGA) questions over the study duration in relation to their IBS symptoms.
# An evaluation of the enrolled subjects was carried out after the Primary Evaluation Period in the study described in Examples 5-7. […] Subjects with no recurrence are defined as having a stool consistency score of less than 4, abdominal pain reduced by at least 30 percent or both.
# rabbit fetuses = test: Developmental toxicity in pregnant rabbits; format: in vivo
structure (smiles),measurement,setting,value
"CO[C@H]1/C=C/O[C@@]2(C)Oc3c(C)c(O)c4c(O)c(c5c(nc6cc(C)ccn65)c4c3C2=O)NC(=O)/C(C)=C\C=C\[C@H](C)[C@H](O)[C@@H](C)[C@@H](O)[C@@H](C)[C@H](OC(C)=O)[C@@H]1C [Rifaximin, (2S,16Z,18E,20S,21S,22R,23R,24R,25S,26S,27S,28E)-5,6,21,23,25 Pentahydroxy-27-methoxy-2,4,11,16,20,22,24,26-octamethyl-2,7-(epoxypentadeca-(1,11,13)trienimino) benzofuro (4,5-e) pyrido(1,2-a) benzimidazole-1,15(2H)-dione,25-acetate]","No Recurrence, Abdominal Pain & Stool Consistency: number of subjects",non-constipation IBS; Rolling 4 Weeks: 5-8 Weeks,278
same,"No Recurrence, Abdominal Pain: % of subjects",non-constipation IBS; Rolling 4 Weeks: 5-8 Weeks,(48.1%)
same,"No Recurrence, Abdominal Pain: number of subjects",non-constipation IBS; Rolling 4 Weeks: 5-8 Weeks,300
same,"No Recurrence, Stool Consistency: % of subjects",non-constipation IBS; Rolling 4 Weeks: 5-8 Weeks,(77.6%)
same,"No Recurrence, Stool Consistency: number of subjects",non-constipation IBS; Rolling 4 Weeks: 5-8 Weeks,484
same,"Recurrence, Abdominal Pain & Stool Consistency: % of subjects",non-constipation IBS; Rolling 4 Weeks: 5-8 Weeks,3.2%
same,"Recurrence, Abdominal Pain & Stool Consistency: number of subjects",non-constipation IBS; Rolling 4 Weeks: 5-8 Weeks,20
same,"Recurrence, Abdominal Pain: % of subjects",non-constipation IBS; Rolling 4 Weeks: 5-8 Weeks,3.0%
same,"Recurrence, Abdominal Pain: number of subjects",non-constipation IBS; Rolling 4 Weeks: 5-8 Weeks,19
same,"Recurrence, Stool Consistency: % of subjects",non-constipation IBS; Rolling 4 Weeks: 5-8 Weeks,2.1%
same,"Recurrence, Stool Consistency: number of subjects",non-constipation IBS; Rolling 4 Weeks: 5-8 Weeks,13
same,"No Recurrence, Abdominal Pain & Stool Consistency: % of subjects",non-constipation IBS; Rolling 4 Weeks: 6-9 Weeks,(41.3%)
same,"No Recurrence, Abdominal Pain & Stool Consistency: number of subjects",non-constipation IBS; Rolling 4 Weeks: 6-9 Weeks,258
same,"No Recurrence, Abdominal Pain: % of subjects",non-constipation IBS; Rolling 4 Weeks: 6-9 Weeks,(45.0%)
same,"No Recurrence, Abdominal Pain: number of subjects",non-constipation IBS; Rolling 4 Weeks: 6-9 Weeks,281
same,"No Recurrence, Stool Consistency: % of subjects",non-constipation IBS; Rolling 4 Weeks: 6-9 Weeks,(75.5%)
same,"No Recurrence, Stool Consistency: number of subjects",non-constipation IBS; Rolling 4 Weeks: 6-9 Weeks,471
same,"Recurrence, Abdominal Pain & Stool Consistency: % of subjects",non-constipation IBS; Rolling 4 Weeks: 6-9 Weeks,2.2%
same,"Recurrence, Abdominal Pain & Stool Consistency: number of subjects",non-constipation IBS; Rolling 4 Weeks: 6-9 Weeks,14
same,"Recurrence, Abdominal Pain: % of subjects",non-constipation IBS; Rolling 4 Weeks: 6-9 Weeks,2.4%
same,"Recurrence, Abdominal Pain: number of subjects",non-constipation IBS; Rolling 4 Weeks: 6-9 Weeks,15
same,"Recurrence, Stool Consistency: % of subjects",non-constipation IBS; Rolling 4 Weeks: 6-9 Weeks,2.6%
same,"Recurrence, Stool Consistency: number of subjects",non-constipation IBS; Rolling 4 Weeks: 6-9 Weeks,16
same,"No Recurrence, Abdominal Pain & Stool Consistency: % of subjects",non-constipation IBS; Rolling 4 Weeks: 7-10 Weeks,(39.1%)
same,"No Recurrence, Abdominal Pain & Stool Consistency: number of subjects",non-constipation IBS; Rolling 4 Weeks: 7-10 Weeks,244
same,"No Recurrence, Abdominal Pain: % of subjects",non-constipation IBS; Rolling 4 Weeks: 7-10 Weeks,(42.6%)
same,"No Recurrence, Abdominal Pain: number of subjects",non-constipation IBS; Rolling 4 Weeks: 7-10 Weeks,266
same,"No Recurrence, Stool Consistency: % of subjects",non-constipation IBS; Rolling 4 Weeks: 7-10 Weeks,(72.9%)
same,"No Recurrence, Stool Consistency: number of subjects",non-constipation IBS; Rolling 4 Weeks: 7-10 Weeks,455
same,"Recurrence, Abdominal Pain & Stool Consistency: % of subjects",non-constipation IBS; Rolling 4 Weeks: 7-10 Weeks,1.8%
same,"Recurrence, Abdominal Pain & Stool Consistency: number of subjects",non-constipation IBS; Rolling 4 Weeks: 7-10 Weeks,11
same,"Recurrence, Abdominal Pain: % of subjects",non-constipation IBS; Rolling 4 Weeks: 7-10 Weeks,2.4%
same,"Recurrence, Abdominal Pain: number of subjects",non-constipation IBS; Rolling 4 Weeks: 7-10 Weeks,15
same,"Recurrence, Stool Consistency: % of subjects",non-constipation IBS; Rolling 4 Weeks: 7-10 Weeks,1.4%
same,"Recurrence, Stool Consistency: number of subjects",non-constipation IBS; Rolling 4 Weeks: 7-10 Weeks,9
same,"No Recurrence, Abdominal Pain & Stool Consistency: % of subjects",non-constipation IBS; Rolling 4 Weeks: 8-11 Weeks,(37.3%)
same,"No Recurrence, Abdominal Pain & Stool Consistency: number of subjects",non-constipation IBS; Rolling 4 Weeks: 8-11 Weeks,233
same,"No Recurrence, Abdominal Pain: % of subjects",non-constipation IBS; Rolling 4 Weeks: 8-11 Weeks,(40.2%)
same,"No Recurrence, Abdominal Pain: number of subjects",non-constipation IBS; Rolling 4 Weeks: 8-11 Weeks,251
same,"No Recurrence, Stool Consistency: % of subjects",non-constipation IBS; Rolling 4 Weeks: 8-11 Weeks,(71.5%)
same,"No Recurrence, Stool Consistency: number of subjects",non-constipation IBS; Rolling 4 Weeks: 8-11 Weeks,446
same,"Recurrence, Abdominal Pain & Stool Consistency: % of subjects",non-constipation IBS; Rolling 4 Weeks: 8-11 Weeks,2.2%
same,"Recurrence, Abdominal Pain & Stool Consistency: number of subjects",non-constipation IBS; Rolling 4 Weeks: 8-11 Weeks,14
same,"Recurrence, Abdominal Pain: % of subjects",non-constipation IBS; Rolling 4 Weeks: 8-11 Weeks,2.2%
same,"Recurrence, Abdominal Pain: number of subjects",non-constipation IBS; Rolling 4 Weeks: 8-11 Weeks,14
same,"Recurrence, Stool Consistency: % of subjects",non-constipation IBS; Rolling 4 Weeks: 8-11 Weeks,0.5%
same,"Recurrence, Stool Consistency: number of subjects",non-constipation IBS; Rolling 4 Weeks: 8-11 Weeks,3
same,"No Recurrence, Abdominal Pain & Stool Consistency: % of subjects",non-constipation IBS; Rolling 4 Weeks: 9-12 Weeks,(35.1%)
same,"No Recurrence, Abdominal Pain & Stool Consistency: number of subjects",non-constipation IBS; Rolling 4 Weeks: 9-12 Weeks,219
same,"No Recurrence, Abdominal Pain: % of subjects",non-constipation IBS; Rolling 4 Weeks: 9-12 Weeks,(38.0%)
same,"No Recurrence, Abdominal Pain: number of subjects",non-constipation IBS; Rolling 4 Weeks: 9-12 Weeks,237
same,"No Recurrence, Stool Consistency: % of subjects",non-constipation IBS; Rolling 4 Weeks: 9-12 Weeks,(71.0%)
same,"No Recurrence, Stool Consistency: number of subjects",non-constipation IBS; Rolling 4 Weeks: 9-12 Weeks,443
same,"Recurrence, Abdominal Pain & Stool Consistency: % of subjects",non-constipation IBS; Rolling 4 Weeks: 9-12 Weeks,1.9%
same,"Recurrence, Abdominal Pain & Stool Consistency: number of subjects",non-constipation IBS; Rolling 4 Weeks: 9-12 Weeks,12
same,"Recurrence, Abdominal Pain: % of subjects",non-constipation IBS; Rolling 4 Weeks: 9-12 Weeks,2.2%
same,"Recurrence, Abdominal Pain: number of subjects",non-constipation IBS; Rolling 4 Weeks: 9-12 Weeks,14
same,"Recurrence, Stool Consistency: % of subjects",non-constipation IBS; Rolling 4 Weeks: 9-12 Weeks,2.1%
same,"Recurrence, Stool Consistency: number of subjects",non-constipation IBS; Rolling 4 Weeks: 9-12 Weeks,13
same,"Abdominal Pain or Stool Consistency, No Recurrence",non-constipation IBS; Rolling 5-8 Weeks,234 (37.5%)
same,"Abdominal Pain or Stool Consistency, Recurrence",non-constipation IBS; Rolling 5-8 Weeks,16 (2.6%)
same,"Abdominal Pain or Stool Consistency, No Recurrence",non-constipation IBS; Rolling 6-9 Weeks,218 (34.9%)
same,"Abdominal Pain or Stool Consistency, Recurrence",non-constipation IBS; Rolling 6-9 Weeks,10 (1.6%)
same,"Abdominal Pain or Stool Consistency, No Recurrence",non-constipation IBS; Rolling 7-10 Weeks,208 (33.3%)
same,"Abdominal Pain or Stool Consistency, Recurrence",non-constipation IBS; Rolling 7-10 Weeks,10 (1.6%)
same,"Abdominal Pain or Stool Consistency, No Recurrence",non-constipation IBS; Rolling 8-11 Weeks,198 (31.7%)
same,"Abdominal Pain or Stool Consistency, Recurrence",non-constipation IBS; Rolling 8-11 Weeks,8 (1.3%)
same,"Abdominal Pain or Stool Consistency, No Recurrence",non-constipation IBS; Rolling 9-12 Weeks,190 (30.4%)
same,"Abdominal Pain or Stool Consistency, Recurrence",non-constipation IBS; Rolling 9-12 Weeks,10 (1.6%)
same,Additional fetal malformations,rabbit fetuses; fetal rabbits,"cleft palate, lumbar scoliosis, brachygnathia, interventricular septal defect, and large atrium"
same,Fetal malformations,"rabbit fetuses; pregnant rabbits, dose levels that caused reduced body weight gain",eye malformations

# Source: patent publication US10610522B2, “Methods for retreating irritable bowel syndrome (IBS)” (Salix Pharmaceuticals, Inc., priority 2014, dated 2020)
